Assay results published in US9750708B2 (The Regents of the University of California, priority 2006, dated 2017).
Each block holds one compound with its values, some of them ahead of it.

Legend:
[1] = system: mice with the gene mutation for Huntington's disease; conditions: mouse, in vivo; cited from earlier work
[2] = Plasma cysteamine after delivery of cysteamine through a nasoenteric tube into stomach, small intestine or cecum; type: in vivo; conditions: human, 10 mg/kg/dose of base, Mean plasma cysteamine Cmax
Procedure: Adult control patients were recruited locally. […] None of the patients had undergone kidney transplantation. Baseline chemistry, Helicobacter pylori serologic study, complete blood count, and urinalysis were performed.
(§1) Immediately proximal to the balloon was an infusion port (1 mm diameter) through which the drug was delivered. […] On day 1 of the study, the nasoenteric tube was inserted into the stomach. By day 3 of the study the tube had passed into the proximal small intestine (SI) just distal to the ligament of Treitz (confirmed fluoroscopically). The balloon was then inflated, and peristalsis propelled the tube distally. Tube position within the cecum was confirmed fluoroscopically on day 5 (day 7 in 4 patients because of slow transit). If the tube had migrated too far, it was retracted into the desired location.
(§2) After an overnight fast (except for water) blood samples were taken at baseline and at varying intervals after intraluminal delivery of cysteamine. […] Gastrin was measured in picograms/mL with the Diagnostic Products Corporation (Los Angeles, Calif.) gastrin radioimmunoassay-assay kit. Leukocyte cystine levels were measured in nmol half-cystine per mg protein by the Cystine Determination Lab (La Jolla, Calif.).
Differences between means for the 3 sites were tested, plus group and group x site interaction effects for the combined groups. If a site effect was detected, Tukey's HSD was applied to determine which sites differed from each other.

[3] = Symptoms after intraluminal cysteamine delivery; type: in vivo, human; conditions: cystinosis subject
Source text: as §1
Only 2 patients (1 male, 1 female) with cystinosis reported regular GI symptoms before the study, and these had responded to acid-suppression therapy. […] No other symptoms were reported after any other cysteamine delivery in the children with cystinosis. There were no associated adverse events with tube placement or removal.

gastrin = assay: Serum gastrin after intraluminal delivery of cysteamine (radioimmunoassay); type: in vivo, human
Source text: as §1, §2
REML repeated measures analyses of variance were also performed as described above on gastrin levels. […] A 5% significance level was used without adjustment for all statistical testing.

leukocyte cystine [4] = assay: Leukocyte cystine levels after intraluminal delivery of cysteamine in patients with cystinosis; type: in vivo, human
Source text: as §1, §2
AOC is computationally analogous to area under the curve, but it is applied when values are predominantly decreasing below baseline values. Large AOC values reflect large decreases, and a negative AOC reflects a net increase in value. Main effects for site of delivery, time after delivery, and the interaction between site and time were tested, except just the site effect was tested for AOCs. In the absence of significant interaction when a main effect was detected, Tukey's honestly significant difference test (HSD) was applied to identify where differences occurred within a 5% family wise error rate. The Tukey HSD procedure controls for overall significance level when performing all pairwise comparisons.

leukocyte cystine [5] = conditions: cited from earlier work
[6] = children with cystinosis; cited from earlier work

Structure (SMILES): NCCSSCCN [Cystamine, cystamine]
Effect in mice with the gene mutation for Huntington's disease [1]: alleviate tremors and prolong life

Cmax ([2]; other: infused through nasoenteric tube into cecum, combined cystinosis and control subjects, delivery into cecum): 22.5 µM | Cmax ([2]; other: infused through nasoenteric tube into cecum, control subjects, delivery into cecum): 23.1 µM | Cmax ([2]; other: infused through nasoenteric tube into cecum, cystinosis subjects, delivery into cecum): 21.9 µM | Cmax ([2]; other: infused through nasoenteric tube into small intestine, combined cystinosis and control subjects, delivery into small intestine): 53.2 µM | Cmax ([2]; other: infused through nasoenteric tube into small intestine, control subjects, delivery into small intestine): 51.1 µM | Cmax ([2]; other: infused through nasoenteric tube into small intestine, cystinosis subjects, delivery into small intestine): 55.8 µM | Cmax ([2]; other: infused through nasoenteric tube into stomach, combined cystinosis and control subjects, delivery into stomach): 37.8 µM | Cmax ([2]; other: infused through nasoenteric tube into stomach, control subjects, delivery into stomach): 39.5 µM | Cmax ([2]; other: infused through nasoenteric tube into stomach, cystinosis subjects, delivery into stomach): 35.5 µM | Symptoms after infusion into the proximal small intestine [3]: did not have any symptoms | Gastrin level after gastric cysteamine (gastrin; 1 child with severe GI symptoms, 30 minutes after gastric delivery, baseline 70 pg/mL): 121 pg/mL | Gastrin levels, baseline and post-cysteamine (undetectable) (gastrin; control group, more than half of the levels, any delivery site): < 25 pg/mL
Structure (SMILES): NCCS [cysteamine]
Symptoms after intragastric cysteamine ([3]; about 15 minutes after delivery): severe retching and emesis | Time leukocyte cystine levels remained at the 1-hour level (leukocyte cystine [4]; after delivery, at 48 hours not returned to pre-cysteamine level): 24 h | Time leukocyte cystine levels remained below pre-delivery levels (leukocyte cystine [4]; single dose of cysteamine into the small intestine (FIG. 3)): up to 12 hours | Decrease in leukocyte cystine after cysteamine delivery (leukocyte cystine [4]; within an hour of delivery): dramatic decrease in leukocyte cystine | Period of activity (leukocyte cystine [5]; oral Cystagon capsules): 5 to 6 h | Time leukocyte cystine level remained suppressed (leukocyte cystine [5]; single dose administered intravenously): more than 24 hours | Depletion of intracellular cystine (leukocyte cystine [5]; taken regularly, measured in circulating white blood cells): up to 90%

Structure (SMILES): COc1ccc2c(c1)c(CC(=O)O)c(C)n2C(=O)c1ccc(Cl)cc1 [indomethacin]
Reduction of urine volume and liquid consumption [6]: about 30%
